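Five concentrations, 48 hours, 96-well plates. At the TGI there is no net growth.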
What follows are compounds tested on A549 NSCLC (assay: NCI anticancer screen, dose series, 48 h).

Compound	TGI [µM]
O=C(NCCNCCNC(=O)c1cc(-c2ccccc2)nc2ccccc12)c1cc(-c2ccccc2)nc2ccccc12	9.13
COc1cc2cc(C(=O)N3CC(CCl)c4ccc([N+](C)(C)Cc5ccccc5[N+](=O)[O-])cc43)[nH]c2c(OC)c1OC (stereo unspecified)	> 100
CC1=NN(c2nc(N)nc(/C(C#N)=C\c3ccc(-c4ccc([N+](=O)[O-])cc4)o3)n2)C(C)(C)C1	> 100
CCOC(=O)c1nc2ccc(C(F)(F)F)cc2nc1Nc1ccc(OC)cc1	> 100
COc1ccc2nc3ccc(OC)cc3c(SCCCl)c2c1	> 100
CC(=O)[C@H]1[C@H](O)C[C@@]2(C)[C@@H]3CCc4cc(O)c(OC5OC(CO)C(O)C(O)C5O)cc4C3(C)C(=O)C[C@]12C (stereo partly specified)	> 100
CC(C)(O)c1cc2c(cc1C(C)(C)O)-c1ccccc1-2	> 100
CC(C)[Si]1(C(C)C)OCC2OC(n3ccc(=O)[nH]c3=O)C([Se]c3ccccc3)C2O[Si](C(C)C)(C(C)C)O1 (stereo unspecified)	22.1
CN(N=O)c1nc2c(C(N)=O)ncn2s1	> 100
CCOc1ccc(NC(=O)C(=O)Nn2c(N)nnc2N)cc1	> 100
CC(C)(C)OC(=O)N1CCCC1C(=O)NC(c1ccccc1)c1ccccc1 (stereo unspecified)	> 100
O=C(NCCN1CCCCC1)c1cccc(I)c1	> 100
COC(=O)[C@@](NC(=O)OCc1ccccc1)([C@H](C)O)C(F)(F)F	> 100
Cc1[nH]c(-c2ccccc2)c2nc(N(C)C)oc(=O)c12	> 100
CC(C)(C)O/N=C/c1cc(NC(=S)c2ccsc2)ccc1Cl	63.8
O=C1Cc2cn[nH]c2-c2ccccc2N1	> 64.2
O=CNc1ccccc1OCCOc1ccccc1NC=O	> 100
C=CCN1CCC(c2cc(C(=O)OCC)[nH]c2-c2cc(C)no2)C1=O (stereo unspecified)	> 100
Cc1cc(NS(=O)(=O)c2ccc(N=[N+]([O-])c3ccc(S(=O)(=O)Nc4cc(C)on4)cc3)cc2)no1	> 100
Cc1c(/C=N/NC(=S)N2CCCCC2)c(=O)n(-c2ccccc2)n1C	> 100
COc1ccc(-c2nc(Nc3ccccc3)sc2Cc2sc(Nc3ccccc3)nc2-c2ccc(OC)cc2)cc1	> 100
Cc1ccc(S(=O)(=O)N2CCNCCN(S(=O)(=O)c3ccc(C)cc3)CCNCC2)cc1	> 100
Cc1sc2nc3n(c(=O)c2c1C)N=CN(c1ccc(Cl)cc1)C3	> 100

What follows are compounds tested on EKVX NSCLC (assay: NCI anticancer screen, dose series, 48 h).

Compound	TGI [µM]
O=C(NCCNCCNC(=O)c1cc(-c2ccccc2)nc2ccccc12)c1cc(-c2ccccc2)nc2ccccc12	11.7
COc1cc2cc(C(=O)N3CC(CCl)c4ccc([N+](C)(C)Cc5ccccc5[N+](=O)[O-])cc43)[nH]c2c(OC)c1OC (stereo unspecified)	21.3
CC(Cn1c2c(c3cc(O)ccc31)CCc1ccc(O)cc1-2)N(C)C (stereo unspecified)	52.9
CC1=NN(c2nc(N)nc(/C(C#N)=C\c3ccc(-c4ccc([N+](=O)[O-])cc4)o3)n2)C(C)(C)C1	> 100
CCOC(=O)c1nc2ccc(C(F)(F)F)cc2nc1Nc1ccc(OC)cc1	> 100
COc1ccc2nc3ccc(OC)cc3c(SCCCl)c2c1	> 100
CC(=O)[C@H]1[C@H](O)C[C@@]2(C)[C@@H]3CCc4cc(O)c(OC5OC(CO)C(O)C(O)C5O)cc4C3(C)C(=O)C[C@]12C (stereo partly specified)	> 100
CC(C)(O)c1cc2c(cc1C(C)(C)O)-c1ccccc1-2	> 100
CC(C)[Si]1(C(C)C)OCC2OC(n3ccc(=O)[nH]c3=O)C([Se]c3ccccc3)C2O[Si](C(C)C)(C(C)C)O1 (stereo unspecified)	17.5
CN(N=O)c1nc2c(C(N)=O)ncn2s1	> 100
CCOc1ccc(NC(=O)C(=O)Nn2c(N)nnc2N)cc1	> 100
CC(C)(C)OC(=O)N1CCCC1C(=O)NC(c1ccccc1)c1ccccc1 (stereo unspecified)	> 100
O=C(NCCN1CCCCC1)c1cccc(I)c1	> 100
COC(=O)[C@@](NC(=O)OCc1ccccc1)([C@H](C)O)C(F)(F)F	> 100
Cc1[nH]c(-c2ccccc2)c2nc(N(C)C)oc(=O)c12	> 100
CC(C)(C)O/N=C/c1cc(NC(=S)c2ccsc2)ccc1Cl	41.1
O=C1Cc2cn[nH]c2-c2ccccc2N1	95.4
O=CNc1ccccc1OCCOc1ccccc1NC=O	> 100
C=CCN1CCC(c2cc(C(=O)OCC)[nH]c2-c2cc(C)no2)C1=O (stereo unspecified)	> 100
Cc1cc(NS(=O)(=O)c2ccc(N=[N+]([O-])c3ccc(S(=O)(=O)Nc4cc(C)on4)cc3)cc2)no1	> 100
Cc1c(/C=N/NC(=S)N2CCCCC2)c(=O)n(-c2ccccc2)n1C	> 100
COc1ccc(-c2nc(Nc3ccccc3)sc2Cc2sc(Nc3ccccc3)nc2-c2ccc(OC)cc2)cc1	> 100
Cc1ccc(S(=O)(=O)N2CCNCCN(S(=O)(=O)c3ccc(C)cc3)CCNCC2)cc1	> 100
Cc1sc2nc3n(c(=O)c2c1C)N=CN(c1ccc(Cl)cc1)C3	> 100

Each compound was assayed on ACHN renal (assay: NCI anticancer screen, dose series, 48 h).

Compound	TGI [µM]
O=C(NCCNCCNC(=O)c1cc(-c2ccccc2)nc2ccccc12)c1cc(-c2ccccc2)nc2ccccc12	4.85
COc1cc2cc(C(=O)N3CC(CCl)c4ccc([N+](C)(C)Cc5ccccc5[N+](=O)[O-])cc43)[nH]c2c(OC)c1OC (stereo unspecified)	> 100
CC(Cn1c2c(c3cc(O)ccc31)CCc1ccc(O)cc1-2)N(C)C (stereo unspecified)	30.1
CC1=NN(c2nc(N)nc(/C(C#N)=C\c3ccc(-c4ccc([N+](=O)[O-])cc4)o3)n2)C(C)(C)C1	> 100
CCOC(=O)c1nc2ccc(C(F)(F)F)cc2nc1Nc1ccc(OC)cc1	> 100
COc1ccc2nc3ccc(OC)cc3c(SCCCl)c2c1	> 100
CC(=O)[C@H]1[C@H](O)C[C@@]2(C)[C@@H]3CCc4cc(O)c(OC5OC(CO)C(O)C(O)C5O)cc4C3(C)C(=O)C[C@]12C (stereo partly specified)	> 100
CC(C)(O)c1cc2c(cc1C(C)(C)O)-c1ccccc1-2	> 100
CC(C)[Si]1(C(C)C)OCC2OC(n3ccc(=O)[nH]c3=O)C([Se]c3ccccc3)C2O[Si](C(C)C)(C(C)C)O1 (stereo unspecified)	6.59
CN(N=O)c1nc2c(C(N)=O)ncn2s1	> 100
CCOc1ccc(NC(=O)C(=O)Nn2c(N)nnc2N)cc1	> 100
CC(C)(C)OC(=O)N1CCCC1C(=O)NC(c1ccccc1)c1ccccc1 (stereo unspecified)	> 100
O=C(NCCN1CCCCC1)c1cccc(I)c1	> 100
COC(=O)[C@@](NC(=O)OCc1ccccc1)([C@H](C)O)C(F)(F)F	> 100
Cc1[nH]c(-c2ccccc2)c2nc(N(C)C)oc(=O)c12	> 100
O=C1Cc2cn[nH]c2-c2ccccc2N1	> 55.7
O=CNc1ccccc1OCCOc1ccccc1NC=O	> 100
Cc1cc(NS(=O)(=O)c2ccc(N=[N+]([O-])c3ccc(S(=O)(=O)Nc4cc(C)on4)cc3)cc2)no1	> 100
Cc1c(/C=N/NC(=S)N2CCCCC2)c(=O)n(-c2ccccc2)n1C	98.5
COc1ccc(-c2nc(Nc3ccccc3)sc2Cc2sc(Nc3ccccc3)nc2-c2ccc(OC)cc2)cc1	> 100
Cc1ccc(S(=O)(=O)N2CCNCCN(S(=O)(=O)c3ccc(C)cc3)CCNCC2)cc1	89.1
Cc1sc2nc3n(c(=O)c2c1C)N=CN(c1ccc(Cl)cc1)C3	> 100

The compounds below were run on CCRF-CEM leukemia (assay: NCI anticancer screen, dose series, 48 h).

Compound	TGI [µM]
O=C(NCCNCCNC(=O)c1cc(-c2ccccc2)nc2ccccc12)c1cc(-c2ccccc2)nc2ccccc12	> 100
COc1cc2cc(C(=O)N3CC(CCl)c4ccc([N+](C)(C)Cc5ccccc5[N+](=O)[O-])cc43)[nH]c2c(OC)c1OC (stereo unspecified)	> 23.8
CC(Cn1c2c(c3cc(O)ccc31)CCc1ccc(O)cc1-2)N(C)C (stereo unspecified)	> 100
CC1=NN(c2nc(N)nc(/C(C#N)=C\c3ccc(-c4ccc([N+](=O)[O-])cc4)o3)n2)C(C)(C)C1	> 100
CCOC(=O)c1nc2ccc(C(F)(F)F)cc2nc1Nc1ccc(OC)cc1	> 100
COc1ccc2nc3ccc(OC)cc3c(SCCCl)c2c1	16
CC(=O)[C@H]1[C@H](O)C[C@@]2(C)[C@@H]3CCc4cc(O)c(OC5OC(CO)C(O)C(O)C5O)cc4C3(C)C(=O)C[C@]12C (stereo partly specified)	> 100
CC(C)(O)c1cc2c(cc1C(C)(C)O)-c1ccccc1-2	> 100
CC(C)[Si]1(C(C)C)OCC2OC(n3ccc(=O)[nH]c3=O)C([Se]c3ccccc3)C2O[Si](C(C)C)(C(C)C)O1 (stereo unspecified)	> 24.4
CN(N=O)c1nc2c(C(N)=O)ncn2s1	> 100
CCOc1ccc(NC(=O)C(=O)Nn2c(N)nnc2N)cc1	> 100
CC(C)(C)OC(=O)N1CCCC1C(=O)NC(c1ccccc1)c1ccccc1 (stereo unspecified)	> 100
O=C(NCCN1CCCCC1)c1cccc(I)c1	> 100
COC(=O)[C@@](NC(=O)OCc1ccccc1)([C@H](C)O)C(F)(F)F	> 100
Cc1[nH]c(-c2ccccc2)c2nc(N(C)C)oc(=O)c12	> 100
CC(C)(C)O/N=C/c1cc(NC(=S)c2ccsc2)ccc1Cl	57.3
O=C1Cc2cn[nH]c2-c2ccccc2N1	53.1
O=CNc1ccccc1OCCOc1ccccc1NC=O	> 100
C=CCN1CCC(c2cc(C(=O)OCC)[nH]c2-c2cc(C)no2)C1=O (stereo unspecified)	> 100
Cc1cc(NS(=O)(=O)c2ccc(N=[N+]([O-])c3ccc(S(=O)(=O)Nc4cc(C)on4)cc3)cc2)no1	> 100
Cc1c(/C=N/NC(=S)N2CCCCC2)c(=O)n(-c2ccccc2)n1C	> 100
COc1ccc(-c2nc(Nc3ccccc3)sc2Cc2sc(Nc3ccccc3)nc2-c2ccc(OC)cc2)cc1	> 100
Cc1sc2nc3n(c(=O)c2c1C)N=CN(c1ccc(Cl)cc1)C3	> 100

Each compound was assayed on TK-10 renal (assay: NCI anticancer screen, dose series, 48 h).

Compound	TGI [µM]
O=C(NCCNCCNC(=O)c1cc(-c2ccccc2)nc2ccccc12)c1cc(-c2ccccc2)nc2ccccc12	7.96
COc1cc2cc(C(=O)N3CC(CCl)c4ccc([N+](C)(C)Cc5ccccc5[N+](=O)[O-])cc43)[nH]c2c(OC)c1OC (stereo unspecified)	> 100
CC(Cn1c2c(c3cc(O)ccc31)CCc1ccc(O)cc1-2)N(C)C (stereo unspecified)	37.1
CC1=NN(c2nc(N)nc(/C(C#N)=C\c3ccc(-c4ccc([N+](=O)[O-])cc4)o3)n2)C(C)(C)C1	> 100
CCOC(=O)c1nc2ccc(C(F)(F)F)cc2nc1Nc1ccc(OC)cc1	> 100
COc1ccc2nc3ccc(OC)cc3c(SCCCl)c2c1	> 100
CC(=O)[C@H]1[C@H](O)C[C@@]2(C)[C@@H]3CCc4cc(O)c(OC5OC(CO)C(O)C(O)C5O)cc4C3(C)C(=O)C[C@]12C (stereo partly specified)	> 100
CC(C)(O)c1cc2c(cc1C(C)(C)O)-c1ccccc1-2	> 100
CC(C)[Si]1(C(C)C)OCC2OC(n3ccc(=O)[nH]c3=O)C([Se]c3ccccc3)C2O[Si](C(C)C)(C(C)C)O1 (stereo unspecified)	19.9
CN(N=O)c1nc2c(C(N)=O)ncn2s1	> 100
CCOc1ccc(NC(=O)C(=O)Nn2c(N)nnc2N)cc1	> 100
CC(C)(C)OC(=O)N1CCCC1C(=O)NC(c1ccccc1)c1ccccc1 (stereo unspecified)	> 100
O=C(NCCN1CCCCC1)c1cccc(I)c1	> 100
COC(=O)[C@@](NC(=O)OCc1ccccc1)([C@H](C)O)C(F)(F)F	> 100
Cc1[nH]c(-c2ccccc2)c2nc(N(C)C)oc(=O)c12	> 100
CC(C)(C)O/N=C/c1cc(NC(=S)c2ccsc2)ccc1Cl	26.6
O=C1Cc2cn[nH]c2-c2ccccc2N1	91.5
O=CNc1ccccc1OCCOc1ccccc1NC=O	> 100
Cc1cc(NS(=O)(=O)c2ccc(N=[N+]([O-])c3ccc(S(=O)(=O)Nc4cc(C)on4)cc3)cc2)no1	> 100
Cc1c(/C=N/NC(=S)N2CCCCC2)c(=O)n(-c2ccccc2)n1C	> 100
COc1ccc(-c2nc(Nc3ccccc3)sc2Cc2sc(Nc3ccccc3)nc2-c2ccc(OC)cc2)cc1	> 100
Cc1ccc(S(=O)(=O)N2CCNCCN(S(=O)(=O)c3ccc(C)cc3)CCNCC2)cc1	44
Cc1sc2nc3n(c(=O)c2c1C)N=CN(c1ccc(Cl)cc1)C3	> 100

Each compound was assayed on SK-MEL-2 melanoma (assay: NCI anticancer screen, dose series, 48 h).

Compound	TGI [µM]
O=C(NCCNCCNC(=O)c1cc(-c2ccccc2)nc2ccccc12)c1cc(-c2ccccc2)nc2ccccc12	3.13

From PubChem BioAssay (NCI)
